Laboratory results published in PubChem BioAssay (NCI).
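Each compound was tested at five concentrations against cells in 96-well plates for 48 hours. TGI: total growth inhibition.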

Columns and labels:
Test in all cases: DTP human tumour cell line panel, 48 h
SK-MEL-2 melanoma = tested on: SK-MEL-2 melanoma
HCC-2998 colon = tested on: HCC-2998 colon
NCI-H226 lung = tested on: NCI-H226 lung
SNB-75 CNS = tested on: SNB-75 CNS
M14 melanoma = tested on: M14 melanoma
DLD-1 colon = tested on: DLD-1 colon
SF-268 CNS = tested on: SF-268 CNS
NCI-H460 lung = tested on: NCI-H460 lung
SF-295 CNS = tested on: SF-295 CNS
K-562 leukemia = tested on: K-562 leukemia
OVCAR-3 ovarian = tested on: OVCAR-3 ovarian
ACHN renal = tested on: ACHN renal
SK-MEL-28 melanoma = tested on: SK-MEL-28 melanoma
DMS 273 small cell lung = tested on: DMS 273 small cell lung
XF 498 CNS = tested on: XF 498 CNS
HT29 colon = tested on: HT29 colon
IGROV1 ovarian = tested on: IGROV1 ovarian
OVCAR-8 ovarian = tested on: OVCAR-8 ovarian
RXF-631 renal = tested on: RXF-631 renal
SR leukemia = tested on: SR leukemia
OVCAR-4 ovarian = tested on: OVCAR-4 ovarian
CCRF-CEM leukemia = tested on: CCRF-CEM leukemia
HCT-116 colon = tested on: HCT-116 colon
UO-31 renal = tested on: UO-31 renal
SN12C renal = tested on: SN12C renal
HL-60(TB) leukemia = tested on: HL-60(TB) leukemia
RXF 393 renal = tested on: RXF 393 renal
MALME-3M melanoma = tested on: MALME-3M melanoma
RPMI-8226 leukemia = tested on: RPMI-8226 leukemia
NCI-H522 lung = tested on: NCI-H522 lung
786-0 renal = tested on: 786-0 renal
A549 NSCLC = tested on: A549 NSCLC
DMS 114 small cell lung = tested on: DMS 114 small cell lung
LOX IMVI melanoma = tested on: LOX IMVI melanoma
NCI-H23 lung = tested on: NCI-H23 lung
SW-620 colon = tested on: SW-620 colon
HOP-92 NSCLC = tested on: HOP-92 NSCLC
M19-MEL melanoma = tested on: M19-MEL melanoma
U251 CNS = tested on: U251 CNS
SNB-78 CNS = tested on: SNB-78 CNS
A498 renal = tested on: A498 renal
TK-10 renal = tested on: TK-10 renal
LXFL 529 NSCLC = tested on: LXFL 529 NSCLC
SNB-19 CNS = tested on: SNB-19 CNS
MOLT-4 leukemia = tested on: MOLT-4 leukemia
HCT-15 colon = tested on: HCT-15 colon
OVCAR-5 ovarian = tested on: OVCAR-5 ovarian
SF-539 CNS = tested on: SF-539 CNS
EKVX NSCLC = tested on: EKVX NSCLC
KM20L2 colon = tested on: KM20L2 colon
UACC-62 melanoma = tested on: UACC-62 melanoma
UACC-257 melanoma = tested on: UACC-257 melanoma
SK-MEL-5 melanoma = tested on: SK-MEL-5 melanoma
CAKI-1 renal = tested on: CAKI-1 renal
COLO 205 colon = tested on: COLO 205 colon
KM12 colon = tested on: KM12 colon
HOP-62 NSCLC = tested on: HOP-62 NSCLC
HOP-18 NSCLC = tested on: HOP-18 NSCLC
SK-OV-3 ovarian = tested on: SK-OV-3 ovarian

Cc1ccccc1NC(=O)CC1C(=O)Nc2ccccc2S1=O (configuration not stated)
TGI (SK-MEL-2 melanoma): > 100 µM
TGI (HCC-2998 colon): > 100 µM
TGI (NCI-H226 lung): > 100 µM
TGI (SNB-75 CNS): 65.9 µM
TGI (M14 melanoma): > 100 µM
TGI (DLD-1 colon): > 100 µM
TGI (SF-268 CNS): > 100 µM
TGI (NCI-H460 lung): > 100 µM
TGI (SF-295 CNS): > 100 µM
TGI (K-562 leukemia): > 100 µM
TGI (OVCAR-3 ovarian): > 100 µM
TGI (ACHN renal): > 100 µM
TGI (SK-MEL-28 melanoma): > 100 µM
TGI (DMS 273 small cell lung): > 100 µM
TGI (XF 498 CNS): > 100 µM
TGI (HT29 colon): > 100 µM
TGI (IGROV1 ovarian): > 100 µM
TGI (OVCAR-8 ovarian): > 100 µM
TGI (RXF-631 renal): > 100 µM
TGI (SR leukemia): > 100 µM
TGI (OVCAR-4 ovarian): > 100 µM
TGI (CCRF-CEM leukemia): > 100 µM
TGI (HCT-116 colon): > 100 µM
TGI (UO-31 renal): > 100 µM
TGI (SN12C renal): > 100 µM
TGI (HL-60(TB) leukemia): > 100 µM
TGI (RXF 393 renal): 51.8 µM
TGI (MALME-3M melanoma): > 100 µM
TGI (RPMI-8226 leukemia): > 100 µM
TGI (NCI-H522 lung): > 100 µM
TGI (786-0 renal): > 100 µM
TGI (A549 NSCLC): > 100 µM
TGI (DMS 114 small cell lung): > 100 µM
TGI (LOX IMVI melanoma): > 100 µM
TGI (NCI-H23 lung): > 100 µM
TGI (SW-620 colon): > 100 µM
TGI (HOP-92 NSCLC): > 100 µM
TGI (M19-MEL melanoma): > 100 µM
TGI (U251 CNS): > 100 µM
TGI (SNB-78 CNS): > 100 µM
TGI (A498 renal): > 100 µM
TGI (TK-10 renal): > 100 µM
TGI (LXFL 529 NSCLC): > 100 µM
TGI (SNB-19 CNS): > 100 µM
TGI (MOLT-4 leukemia): > 100 µM
TGI (HCT-15 colon): > 100 µM
TGI (OVCAR-5 ovarian): > 100 µM
TGI (SF-539 CNS): 94.3 µM
TGI (EKVX NSCLC): > 100 µM
TGI (KM20L2 colon): > 100 µM
TGI (UACC-62 melanoma): > 100 µM
TGI (UACC-257 melanoma): > 100 µM
TGI (SK-MEL-5 melanoma): > 100 µM
TGI (CAKI-1 renal): > 100 µM

CCOC(=O)/C(Br)=C1\OC(=O)c2ccccc2-c2ccccc21
TGI (SK-MEL-2 melanoma): > 100 µM
TGI (COLO 205 colon): 49.9 µM
TGI (HCC-2998 colon): > 100 µM
TGI (NCI-H226 lung): 86.1 µM
TGI (SNB-75 CNS): > 100 µM
TGI (M14 melanoma): > 100 µM
TGI (DLD-1 colon): > 100 µM
TGI (KM12 colon): > 100 µM
TGI (SF-268 CNS): > 100 µM
TGI (SF-295 CNS): > 100 µM
TGI (K-562 leukemia): > 100 µM
TGI (OVCAR-3 ovarian): > 100 µM
TGI (ACHN renal): > 100 µM
TGI (SK-MEL-28 melanoma): > 100 µM
TGI (DMS 273 small cell lung): > 100 µM
TGI (XF 498 CNS): > 100 µM
TGI (HT29 colon): > 100 µM
TGI (IGROV1 ovarian): > 100 µM
TGI (OVCAR-8 ovarian): > 100 µM
TGI (RXF-631 renal): > 100 µM
TGI (SR leukemia): 56.7 µM
TGI (CCRF-CEM leukemia): 67.7 µM
TGI (HCT-116 colon): > 100 µM
TGI (UO-31 renal): > 100 µM
TGI (SN12C renal): > 100 µM
TGI (HL-60(TB) leukemia): 40.1 µM
TGI (MALME-3M melanoma): > 100 µM
TGI (RPMI-8226 leukemia): > 100 µM
TGI (NCI-H522 lung): 61.1 µM
TGI (786-0 renal): > 100 µM
TGI (A549 NSCLC): > 100 µM
TGI (DMS 114 small cell lung): 61.7 µM
TGI (HOP-62 NSCLC): 54.7 µM
TGI (LOX IMVI melanoma): > 100 µM
TGI (NCI-H23 lung): > 100 µM
TGI (SW-620 colon): > 100 µM
TGI (HOP-92 NSCLC): 79.9 µM
TGI (M19-MEL melanoma): > 100 µM
TGI (U251 CNS): > 100 µM
TGI (HOP-18 NSCLC): > 100 µM
TGI (SNB-78 CNS): > 100 µM
TGI (SK-OV-3 ovarian): > 100 µM
TGI (TK-10 renal): > 100 µM
TGI (LXFL 529 NSCLC): 99 µM
TGI (MOLT-4 leukemia): 65.5 µM
TGI (HCT-15 colon): > 100 µM
TGI (OVCAR-5 ovarian): > 100 µM
TGI (SF-539 CNS): 73.1 µM
TGI (EKVX NSCLC): > 100 µM
TGI (UACC-62 melanoma): > 100 µM
TGI (UACC-257 melanoma): > 100 µM
TGI (SK-MEL-5 melanoma): > 100 µM
TGI (CAKI-1 renal): > 100 µM
